Results from patent US20250177566A1, “USE OF CHEMICAL EPIGENETIC MODIFIERS TO MODULATE GENE EXPRESSION” (The University of North Carolina at Chapel Hill, priority 2022, published 2025).

Target: T1, BRD4 (Homo sapiens, UniProt O60885+P62942)
T1 construct: achieved via the accumulation of endogenous epigenetic machinery at the designed gRNA targeted gene locus; endogenous in cells; host or cells: HCT116 cells stably expressing dCas9 and MS2-FKBP*x2, transfected with CXCR4 or NT gRNA
Assay: BRD4 ChIP-seq, HCT116
Type: cell-based
Text: Given that SLF*-CEMa facilitates gene activation via recruitment of BET proteins including BRD4, BRD4 enrichment at a specific targeted gene locus was investigated to further validate the mechanism of CEM207. Based on the alamarBlue cell viability assay performed with HEK293T and HCT116 cells, CEM207 can have different toxicity effects on different cell lines after 4 days of exposure. Specifically, HCT116 appeared to be more tolerant to CEM207 treatment. […] Based on the cell viability data, chromatin immunoprecipitation-qPCR (ChIP-qPCR) was performed in stably infected HCT116 cells. […] The signal change was measured between samples when only CEM207 or gRNA are present and those where both are present. […] To determine outlier significance, a “z-score” distribution was calculated by taking the scaled means of the x- and y-axis values and calculated P values for each point within this distribution. […]
ChIP-seq library preparation. […] Libraries were sequenced to a depth of 30 million […] (75-bp single-end reads) on an Illumina NextSeq 500.
ChIP-seq analyses. Reads from the sequencer were demultiplexed using bcl2fastq (v2.20.0). Sequencing adapters on reads were trimmed using cutadapt (v1.12) using options -a GATCGGAAGAGC (SEQ ID NO: 35) and—minimum-length 36 in […]. […]

T1 sequence (P62942 2-108 limits assumed, other chains not shown): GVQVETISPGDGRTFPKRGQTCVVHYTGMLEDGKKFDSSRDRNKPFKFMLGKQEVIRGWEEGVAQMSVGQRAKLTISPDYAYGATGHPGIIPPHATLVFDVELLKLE

CC[C@H](C(=O)N1CCCC[C@H]1C(=O)O[C@H](CCc1ccc(OC)c(OC)c1)c1cccc(OCC(=O)NCCOCCOCCNC(=O)C[C@@H]2N=C(c3ccc(Cl)cc3)c3c(sc(C)c3C)-n3c(C)nnc32)c1)c1cc(OC)c(OC)c(OC)c1 [CEM207, (R)-1-(3-((14-((S)-4-(4-Chlorophenyl)-2,3,9-trimethyl-6H-thieno[3,2-f][1,2,4]triazolo[4,3-a][1,4]diazepin-6-yl)-2,13-dioxo-6,9-dioxa-3,12-diazatetradecyl)oxy)phenyl)-3-(3,4-dimethoxyphenyl) propyl(S)-1-((S)-2-(3,4,5-trimethoxyphenyl)butanoyl) piperidine-2-carboxylate]
BRD4 ChIP-seq signal at the CXCR4 locus (25 nM CEM207 + sgCXCR4): well-defined BRD4 signal peak at the CXCR4 locus | BRD4 peaks having a log2 fold-change in signal less than two in either direction (off-target assessment, CEM207 or gRNA only vs both present): 96.8%
